Assay results published in ChEMBL document CHEMBL5113477, “Membrane acting Povarov-Doebner derived compounds potently disperse preformed multidrug resistant Gram-positive bacterial biofilms” (Eur J Med Chem, 2022).

System: Enterococcus faecium
Assay: Synergistic antibiofilm activity against vancomycin-resistant Enterococcus faecium ATCC 700221 in TSB broth assessed as dispersal of glucose-induced biofilm by measuring fractional inhibitory concentration index preincubated with glucose for 48 hrs followed by compound addition and further incubated for 24 hrs in presence of Bithionol by crystal violet staining based checkerboard assay
Type: functional

Oc1ccc([C@@H]2Nc3ccc(S(F)(F)(F)(F)F)cc3[C@H]3[C@@H]4CC[C@@H](C4)[C@H]32)cc1
fractional inhibitory concentration index (FICI): 0.28
